Laboratory results reported in the supplement of paper PMC10307832.

Tests used:
Assay in all cases: relative viability (nuclei count vs DMSO), 5 days (fraction); higher = more cells survive
[1] = compound: COc1cc(Nc2ncc(F)c(Nc3ccc4c(n3)NC(=O)C(C)(C)O4)n2)cc(OC)c1OC [R406] + O=C(c1cc(Cc2n[nH]c(=O)c3ccccc23)ccc1F)N1CCN(C(=O)C2CC2)CC1 [Olaparib] (partner 8 µM)
Outline: (§1)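 Relative viability equals treated-well nuclei counts divided by vehicle-well nuclei counts. Counts came from 4× images of lung cancer cell lines grown in 1536-well plates for 5 days after pin-tool dosing on the day after seeding. Dosing used one drug alone or a fixed anchor-drug dose plus five library-drug doses (not always all listed) in √10 steps, and values are medians of duplicate plates.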

[2] = compound: O=C(/C=C/c1cccnc1)NCCCCC1CCN(C(=O)c2ccccc2)CC1 [Daporinad] + O=C(CCCCCCC(=O)Nc1ccccc1)NO [Vorinostat] (partner 1 µM)
Outline: as §1

[3] = compound: COc1cc(Nc2ncc(F)c(Nc3ccc4c(n3)NC(=O)C(C)(C)O4)n2)cc(OC)c1OC [R406] + Nc1nc2[nH]cc(CCc3ccc(C(=O)N[C@@H](CCC(=O)O)C(=O)O)cc3)c2c(=O)[nH]1 [Pemetrexed] (partner 0.2 µM)
Outline: as §1

[4] = compound: O=C(/C=C/c1cccnc1)NCCCCC1CCN(C(=O)c2ccccc2)CC1 [Daporinad] + CS(=O)(=O)N1CCN(Cc2cc3nc(-c4cccc5[nH]ncc45)nc(N4CCOCC4)c3s2)CC1 [Pictilisib] (partner 1 µM)
Outline: as §1

Cell Line	relative viability ([1]; first compound 0.08 µM)	relative viability ([1]; first compound 0.253 µM)	relative viability ([1]; first compound 0.8 µM)	relative viability ([1]; first compound 2.53 µM)	relative viability ([1]; first compound 8 µM)	relative viability ([2]; first compound 0.0005 µM)	relative viability ([2]; first compound 0.001581 µM)	relative viability ([2]; first compound 0.005 µM)	relative viability ([2]; first compound 0.01581 µM)	relative viability ([3]; first compound 0.08 µM)	relative viability ([3]; first compound 0.253 µM)	relative viability ([3]; first compound 0.8 µM)	relative viability ([3]; first compound 2.53 µM)	relative viability ([3]; first compound 8 µM)	relative viability ([4]; first compound 0.0005 µM)	relative viability ([4]; first compound 0.001581 µM)	relative viability ([4]; first compound 0.005 µM)	relative viability ([4]; first compound 0.01581 µM)
201T	0.853	0.867	0.873	0.824	0.515	0.965	1.08	1.05	1.04	0.322	0.359	0.322	0.309	0.294	0.657	0.675	0.682	0.635
A549	0.28	0.464	0.328	0.0554	0.306	–	–	–	–	–	–	–	–	–	0.548	0.529	0.61	0.469
A-427	0.717	0.762	0.853	0.682	0.435	0.838	0.886	0.793	0.659	0.947	1.01	1.05	0.979	0.787	0.559	0.79	0.684	0.716
ABC-1	0.77	0.805	0.923	0.501	0.576	0.809	1.51	1.46	0.9	–	–	–	–	–	0.652	0.934	0.734	0.743
BEN	1.09	1.24	1.28	1.04	0.871	0.554	0.661	0.679	0.63	0.773	0.879	0.805	0.835	0.438	0.624	0.62	0.597	0.776
CAL-12T	0.71	0.746	0.747	0.687	0.55	0.659	0.799	0.402	0.217	1.22	1.15	1.17	0.918	1	0.305	–	0.442	0.494
COR-L23	0.385	0.354	0.334	0.246	0.209	0.427	0.345	0.408	0.161	0.2	0.182	0.191	0.183	0.191	0.777	0.952	0.721	0.368
COR-L 105	0.592	0.704	0.554	0.59	0.602	0.775	0.705	0.861	0.851	1.29	1.22	1.12	1.24	0.841	0.348	0.364	0.36	0.537
Calu-6	0.556	0.571	0.576	–	0.271	–	–	–	–	–	–	–	–	–	0.917	0.907	0.81	0.421
ChaGo-K-1	0.381	0.485	0.438	0.422	0.296	0.832	0.743	0.677	0.283	0.25	0.25	0.248	0.253	0.233	0.774	0.64	0.702	0.578
EBC-1	0.671	0.783	0.843	0.644	0.369	–	–	–	–	–	–	–	–	–	0.335	0.43	0.37	0.469
EKVX	0.928	0.971	0.995	0.717	0.655	0.621	0.825	0.841	0.851	0.374	0.467	0.395	0.365	0.387	0.478	0.432	0.412	0.464
EMC-BAC-2	0.46	0.547	0.468	0.393	0.307	0.319	0.567	0.421	0.301	0.421	0.457	0.427	0.499	0.229	0.628	0.567	0.485	0.319
EPLC-272H	0.8	0.754	0.707	0.325	0.112	0.408	0.531	0.401	0.294	0.359	0.359	0.316	0.231	0.151	0.295	0.382	0.387	0.436
H3255	0.556	0.607	0.545	0.512	0.475	0.668	0.591	0.775	0.979	0.547	0.588	0.606	0.521	0.49	0.46	0.488	0.507	0.469
HARA	0.826	0.496	0.705	0.779	0.17	0.39	0.527	0.518	0.663	0.261	0.236	0.246	0.262	0.174	0.329	0.568	0.436	0.371
HCC-15	0.653	0.839	0.675	0.725	0.505	0.782	0.959	0.889	0.911	0.213	0.223	0.2	0.201	0.144	0.664	0.8	0.79	0.856
HCC-44	0.95	1	0.954	0.989	1.06	0.928	1.18	1.19	1.03	0.585	0.621	0.603	0.601	0.726	0.643	0.658	0.706	0.657
HCC-78	0.83	0.896	0.848	0.656	0.394	0.368	0.414	0.345	0.5	0.807	0.972	0.962	0.847	0.878	0.217	0.145	0.166	0.259
HCC-366	0.33	0.391	0.349	0.316	0.0913	0.363	–	0.389	0.321	0.161	0.17	0.172	0.164	0.132	0.14	0.167	0.152	0.201
